± gives the standard deviation of the averaged measurements.
Experiments:
LENVATINIB = compound: COc1cc2nccc(Oc3ccc(NC(=O)NC4CC4)c(Cl)c3)c2cc1C(N)=O [LENVATINIB]; assay: surviving fraction relative to DMSO-only wells; higher = less growth inhibition; conditions: exposure time: 5 days
Summary of the method: (§1)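 Surviving fraction was calculated by normalising CellTiter-Glo luminescence to the median of DMSO-only wells. Tumour cell lines in log phase were seeded in 384-well plates at 250–500 cells per well, and 24 hours later were exposed continuously for five days to inhibitors at 0.5, 1, 5, 10, 50, 100, 500 and 1000 nM.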

BEZ-235 = compound: Cn1c(=O)n(-c2ccc(C(C)(C)C#N)cc2)c2c3cc(-c4cnc5ccccc5c4)ccc3ncc21 [BEZ-235]; assay: as above; conditions: exposure time: 5 days
Summary of the method: as §1

Row | Test System | surviving fraction (LENVATINIB; 0.5 nM) | surviving fraction (LENVATINIB; 1 nM) | surviving fraction (LENVATINIB; 5 nM) | surviving fraction (LENVATINIB; 10 nM) | surviving fraction (LENVATINIB; 50 nM) | surviving fraction (LENVATINIB; 100 nM) | surviving fraction (LENVATINIB; 500 nM) | surviving fraction (LENVATINIB; 1000 nM) | surviving fraction (BEZ-235; 0.5 nM) | surviving fraction (BEZ-235; 1 nM) | surviving fraction (BEZ-235; 5 nM) | surviving fraction (BEZ-235; 10 nM) | surviving fraction (BEZ-235; 50 nM) | surviving fraction (BEZ-235; 100 nM) | surviving fraction (BEZ-235; 500 nM) | surviving fraction (BEZ-235; 1000 nM)
1 | HCC1395 BREAST | 0.937 ± 0.018 | 0.948 ± 0.079 | 0.932 ± 0.05 | 1.03 ± 0.058 | 1 ± 0.11 | 1.03 ± 0.045 | 0.999 ± 0.098 | 0.845 ± 0.075 | 1.03 ± 0.12 | 0.967 ± 0.11 | 1.14 ± 0.095 | 1.09 ± 0.037 | 0.988 ± 0.12 | 1 ± 0.13 | 0.788 ± 0.12 | 0.759 ± 0.17
2 | HCC1806 BREAST | 1.02 ± 0.018 | 0.932 ± 0.099 | 1.12 ± 0.13 | 1.13 ± 0.089 | 1.24 ± 0.079 | 1.1 ± 0.13 | 0.961 ± 0.088 | 0.941 ± 0.13 | 0.958 ± 0.16 | 0.986 ± 0.14 | 1.17 ± 0.085 | 1.15 ± 0.1 | 0.837 ± 0.016 | 0.662 ± 0.05 | 0.388 ± 0.036 | 0.317 ± 0.041
3 | HCC1954 BREAST | 0.904 ± 0.058 | 0.817 ± 0.05 | 1.0393 ± 0.00035 | 0.917 ± 0.04 | 0.993 ± 0.058 | 0.988 ± 0.011 | 1.03 ± 0.11 | 1.11 ± 0.067 | 1.02 ± 0.06 | 0.947 ± 0.1 | 1.05 ± 0.064 | 0.875 ± 0.11 | 0.492 ± 0.02 | 0.363 ± 0.02 | 0.172 ± 0.011 | 0.127 ± 0.0092
4 | HCT15 LARGE INTESTINE | 1.09 ± 0.031 | 1.08 ± 0.039 | 1.08 ± 0.031 | 1.09 ± 0.063 | 1.13 ± 0.052 | 1.17 ± 0.061 | 1.12 ± 0.028 | 1.14 ± 0.021 | 1.04 ± 0.026 | 1.03 ± 0.057 | 1.11 ± 0.041 | 1.1 ± 0.033 | 0.655 ± 0.035 | 0.525 ± 0.0089 | 0.249 ± 0.027 | 0.209 ± 0.0044
5 | HELA CERVIX | 1.06 ± 0.088 | 1.04 ± 0.095 | 1.05 ± 0.061 | 1.05 ± 0.071 | 1.17 ± 0.04 | 1.19 ± 0.1 | 1.19 ± 0.1 | 1.17 ± 0.044 | 1.05 ± 0.087 | 1.09 ± 0.069 | 1.112 ± 0.0048 | 1.02 ± 0.035 | 1.12 ± 0.061 | 1.2 ± 0.028 | 0.7 ± 0.019 | 0.4533 ± 0.0038
6 | HOS BONE | 1.03 ± 0.012 | 1.067 ± 0.0047 | 1.03 ± 0.028 | 1.02 ± 0.025 | 1.06 ± 0.071 | 1.05 ± 0.047 | 1.02 ± 0.017 | 0.946 ± 0.0092 | 1.02 ± 0.034 | 1.05 ± 0.036 | 1.02 ± 0.014 | 1.01 ± 0.018 | 0.763 ± 0.034 | 0.591 ± 0.017 | 0.317 ± 0.015 | 0.285 ± 0.015
7 | HOSMNG BONE | 1.02 ± 0.036 | 1.03 ± 0.023 | 0.964 ± 0.06 | 1.02 ± 0.043 | 1.11 ± 0.033 | 1.07 ± 0.036 | 1.09 ± 0.067 | 1.05 ± 0.091 | 0.956 ± 0.014 | 0.96 ± 0.041 | 0.929 ± 0.022 | 0.958 ± 0.05 | 0.917 ± 0.044 | 0.772 ± 0.035 | 0.426 ± 0.0052 | 0.297 ± 0.012
8 | HSSYII SYNOVIAL | 0.933 ± 0.057 | 0.961 ± 0.028 | 0.952 ± 0.018 | 0.942 ± 0.06 | 0.842 ± 0.026 | 0.724 ± 0.024 | 0.38 ± 0.024 | 0.3 ± 0.017 | 0.963 ± 0.072 | 0.921 ± 0.062 | 0.933 ± 0.012 | 0.88 ± 0.032 | 0.548 ± 0.017 | 0.38 ± 0.0082 | 0.165 ± 0.0072 | 0.129 ± 0.013
9 | HT1080 SOFT TISSUE | 1 ± 0.043 | 1.01 ± 0.051 | 1 ± 0.033 | 1.02 ± 0.032 | 1 ± 0.013 | 0.978 ± 0.021 | 1 ± 0.039 | 0.987 ± 0.026 | 0.985 ± 0.022 | 1.03 ± 0.011 | 1 ± 0.025 | 0.996 ± 0.055 | 0.6683 ± 0.0059 | 0.496 ± 0.021 | 0.221 ± 0.01 | 0.162 ± 0.0061
10 | HU09 BONE | 0.925 ± 0.039 | 0.985 ± 0.079 | 0.97 ± 0.014 | 0.937 ± 0.13 | 0.649 ± 0.075 | 0.587 ± 0.021 | 0.33 ± 0.045 | 0.288 ± 0.034 | 1.04 ± 0.18 | 1.07 ± 0.059 | 1.19 ± 0.053 | 1.12 ± 0.1 | 0.572 ± 0.025 | 0.416 ± 0.025 | 0.181 ± 0.013 | 0.134 ± 0.006
11 | HUO3N1 BONE | 1.05 ± 0.057 | 1.04 ± 0.058 | 1.03 ± 0.013 | 0.961 ± 0.053 | 0.967 ± 0.034 | 0.876 ± 0.018 | 0.764 ± 0.0072 | 0.676 ± 0.051 | 0.992 ± 0.041 | 1.04 ± 0.042 | 0.946 ± 0.025 | 0.994 ± 0.039 | 0.838 ± 0.071 | 0.631 ± 0.031 | 0.341 ± 0.0053 | 0.258 ± 0.0061
12 | JIMT1 BREAST | 0.987 ± 0.026 | 1.03 ± 0.0053 | 1.03 ± 0.026 | 1.03 ± 0.052 | 1.06 ± 0.068 | 1.04 ± 0.011 | 1 ± 0.015 | 1.08 ± 0.011 | 1.03 ± 0.031 | 0.992 ± 0.024 | 0.983 ± 0.0095 | 0.992 ± 0.019 | 0.732 ± 0.03 | 0.464 ± 0.04 | 0.21 ± 0.013 | 0.194 ± 0.009
13 | JURKAT HAEMATOPOIETIC AND LYMPHOID TISSUE | 1.06 ± 0.011 | 1.08 ± 0.024 | 1.03 ± 0.035 | 1.02 ± 0.041 | 1 ± 0.039 | 1.02 ± 0.038 | 1.013 ± 0.009 | 0.964 ± 0.032 | 1.05 ± 0.03 | 1.07 ± 0.032 | 1.05 ± 0.024 | 1.05 ± 0.03 | 0.788 ± 0.021 | 0.582 ± 0.021 | 0.211 ± 0.0053 | 0.056 ± 0.001
14 | KPD BONE | 1 ± 0.019 | 0.99 ± 0.067 | 1.01 ± 0.078 | 1.01 ± 0.093 | 1 ± 0.11 | 1.02 ± 0.11 | 0.948 ± 0.03 | 0.814 ± 0.037 | 0.977 ± 0.065 | 1.01 ± 0.061 | 1 ± 0.024 | 0.951 ± 0.032 | 0.525 ± 0.029 | 0.361 ± 0.0087 | 0.0903 ± 0.0011 | 0.0727 ± 0.0025
15 | LM7 BONE | 0.974 ± 0.11 | 0.951 ± 0.066 | 1.03 ± 0.074 | 0.973 ± 0.086 | 1.07 ± 0.12 | 1.03 ± 0.041 | 0.939 ± 0.022 | 0.952 ± 0.11 | 0.941 ± 0.042 | 1 ± 0.1 | 1.02 ± 0.094 | 1.07 ± 0.062 | 0.975 ± 0.077 | 0.845 ± 0.063 | 0.366 ± 0.016 | 0.312 ± 0.024
16 | LNCAP PROSTATE | 1.16 ± 0.031 | 0.973 ± 0.044 | 0.904 ± 0.17 | 0.896 ± 0.1 | 1.02 ± 0.13 | 0.924 ± 0.16 | 0.909 ± 0.12 | 0.533 ± 0.073 | 0.998 ± 0.11 | 0.934 ± 0.06 | 0.887 ± 0.14 | 0.9 ± 0.12 | 0.405 ± 0.016 | 0.255 ± 0.039 | 0.087 ± 0.014 | 0.0853 ± 0.011
17 | MCF7 BREAST | 0.954 ± 0.061 | 0.903 ± 0.056 | 0.954 ± 0.059 | 0.931 ± 0.076 | 0.971 ± 0.034 | 0.978 ± 0.11 | 0.942 ± 0.03 | 0.934 ± 0.073 | 0.934 ± 0.071 | 0.961 ± 0.017 | 0.943 ± 0.064 | 0.941 ± 0.036 | 0.681 ± 0.023 | 0.5461 ± 0.0041 | 0.328 ± 0.012 | 0.2896 ± 0.0025
18 | MDAMB134 BREAST | 1.12 ± 0.079 | 1.08 ± 0.044 | 1.16 ± 0.069 | 1.09 ± 0.011 | 1.29 ± 0.13 | 1.32 ± 0.14 | 0.972 ± 0.15 | 1.05 ± 0.057 | 1.08 ± 0.058 | 1.17 ± 0.033 | 1.11 ± 0.024 | 1.09 ± 0.021 | 0.881 ± 0.025 | 0.83 ± 0.083 | 0.474 ± 0.15 | 0.476 ± 0.03
19 | MDAMB157 BREAST | 0.97 ± 0.13 | 1.03 ± 0.081 | 0.993 ± 0.071 | 1.06 ± 0.11 | 0.934 ± 0.045 | 0.873 ± 0.069 | 0.7437 ± 0.0042 | 0.621 ± 0.045 | 0.983 ± 0.056 | 0.974 ± 0.1 | 0.936 ± 0.12 | 1.02 ± 0.11 | 0.825 ± 0.094 | 0.752 ± 0.081 | 0.454 ± 0.06 | 0.381 ± 0.008
20 | MDAMB231 BREAST | 1.01 ± 0.029 | 1.02 ± 0.025 | 1.03 ± 0.033 | 1.02 ± 0.011 | 0.988 ± 0.012 | 1.02 ± 0.032 | 0.913 ± 0.032 | 0.882 ± 0.025 | 1.01 ± 0.026 | 1.02 ± 0.034 | 1.01 ± 0.032 | 0.959 ± 0.037 | 0.574 ± 0.016 | 0.437 ± 0.019 | 0.231 ± 0.0068 | 0.227 ± 0.013
21 | MDAMB361 BREAST | 0.893 ± 0.098 | 0.873 ± 0.034 | 0.959 ± 0.032 | 0.865 ± 0.035 | 0.941 ± 0.08 | 0.978 ± 0.066 | 0.928 ± 0.063 | 0.763 ± 0.063 | 0.888 ± 0.068 | 0.854 ± 0.045 | 0.904 ± 0.03 | 0.882 ± 0.051 | 0.794 ± 0.078 | 0.636 ± 0.037 | 0.355 ± 0.015 | 0.313 ± 0.02
